Results on nine compounds are retold here after publication PMC11769294, “(E)-1-(3-(3-Hydroxy-4-Methoxyphenyl)-1-(3,4,5-Trimethoxyphenyl)allyl)-1H-1,2,4-Triazole and Related Compounds: Their Synthesis and Biological Evaluation as Novel Antimitotic Agents Targeting Breast Cancer” (Pharmaceuticals, 2025).

Where two headings read alike, the source gives them in different places.

Test [1] relates to MCF-7 breast cancer cells. Nature of the test: alamarBlue cell viability assay. The format is cell-based. The following applies: Homo sapiens. On the procedure:
Figure 5 Preliminary cell viability data for Series 1: (A) compounds 22a–22g and chalcone 20b and Series 2: (B) compounds 23a–e and chalcone 20b in MCF-7 breast cancer cells. Cell proliferation of MCF-7 cells was determined with an alamarBlue assay (seeding density 2.5 × 10^4 cells/mL per well for 96-well plates). Compound concentrations of either 1 or 0.1 μM for 72 h were used to treat the cells (in triplicate) with control wells containing vehicle ethanol (1% v/v). The mean value ± SEM for three independent experiments is shown. The positive controls used are CA-4 and phenstatin (1.0 μM and 0.1 μM). Statistical analysis was performed using One-way ANOVA with the Sidak multiple comparison test (***, p < 0.001).
HL-60 cells were suspension cells and the seeding density for the viability assay was 25,000 cells/mL. MCF-7 cells (adherent) were cultured in Minimum Essential Media (MEM) with GlutaMAX™-I, supplemented with 1% (v/v) non-essential amino acids, 10% (v/v) fetal bovine serum (FBS), purchased from BD Biosciences (Edmund Halley Road, Oxford, UK), and 1% (v/v) penicillin/streptomycin 5000 U/mL. The MCF-7 cells used in the screening of the compounds during these experiments were mycoplasma-free. The seeding density of MCF-7 in the viability assay was 25,000 cells/mL and 50,000 cells/mL in the FACS assay. Normal breast cells (MCF-10A) (adherent) were cultured in Dulbecco’s Modified Eagle Medium: Nutrient Mixture F-12 (DMEM/F12; Gibco) supplemented with 5% horse serum (Invitrogen, Waltham, MA, USA), 20 ng/mL epidermal growth factor (Merck Millipore, Burlington, MA, USA), 0.5 μg/mL hydrocortisone (Sigma, Kanagawa, Japan), 100 ng/mL cholera toxin (Sigma), 10 μg/mL insulin (Sigma), and penicillin/streptomycin 5000 U/mL (1%) (Gibco, Waltham, MA, USA). […] MDA-MB-231 cells were cultured in Dulbecco’s Modified Eagle Medium, which was supplemented with 10% (v/v) fetal bovine serum (FBS) and 1% (v/v) penicillin/streptomycin 5000 U/mL. When not in use, all cells were kept in liquid nitrogen and frozen in a freezing media made of 90% FBS and 10% DMSO. All cells were grown in an atmosphere of 5% CO2/95% air in T75 culture flasks. The media was changed every 2–3 days and media was always prewarmed to 37 °C. All were sub-cultured every 3–4 days by trypsinization using TrypLE™ Express enzyme when confluence was reached to allow growth, prevent excessive cell death, and minimize the risk of infections derived by over-confluence. For the cell viability assay, the number of cells per milliliter was 25,000 cells/mL while the FACS assay utilized 50,000 cells/mL. Cells were maintained at 37 °C in 5% CO2 in a humidified incubator.
The biochemical assays were performed in triplicate and on at least three independent occasions to facilitate the determination of mean values. For the viability assay, cells were grown until 80% confluent. Adherent cells such as MCF-7, MDA-MB-231, and MCF-10A were trypsinized to detach them from the flask, counted as previously described, and seeded in 96 well plates with a seeding density of 25,000 cells /mL (200 µL of suspension in each well so that the final number of cells per well was 5000) and 1 × 10^4 cells/well seeding density for suspension HL-60 cells. Adherent cells were incubated for 24 h after being seeded in the 96 well plate and treated on the following day, while suspension cells were treated on the same day of the seeding. In both cases, the incubation time after the treatment with the drug was 72 h. After 68 h incubation, the AlamarBlue was added (20 µL in each well) and the incubation time was completed. After 72 h, the change in color was measured by spectrofluorimetry at an excitation wavelength of 544 nm and emission wavelength of 590 nm. AlamarBlue is a cell viability indicator containing a compound called resazurin. AlamarBlue is water soluble, stable in culture media, non-toxic, and is permeable through the cell membrane. […]
For orientation: Resazurin is reduced to fluorescent resorufin, in cell work by metabolically active cells.

Test [2] deals with MCF-7 breast cancer cells. The conditions noted are these: cited from earlier work.
The test system of test [3] is HL-60 cells. The conditions noted are these: reported values; cited from earlier work.
The subject of test [4] is MDA-MB-231 breast cancer cells. The conditions noted are these: reported values; cited from earlier work.
The test system of test [5] is K562 human chronic myelogenous leukemia cell line. Details: method as in PMID 19837593. The following applies: cited from earlier work.
Test [6] has as its system tubulin in MCF-7 breast cancer cells. Nature of the test: Immunofluorescence confocal microscopy of microtubules. Format: cell-based, human. The conditions noted are these: 16 h, 22b 10 μM, paclitaxel and phenstatin 1 μM. On the procedure: Briefly, the MCF-7 cells were seeded at a density of 1 × 10^5 cells/mL on eight chamber glass slides (BD Biosciences). […] The cells were then washed in PBS, fixed for 20 min with 4% paraformaldehyde in PBS, and permeabilized in 0.5% Triton X-100. […] Images of the cells were obtained using Leica SP8 confocal microscopy (Wetzlar, Germany) with Leica application suite X software (Wetzlar, Germany). Experiments were performed on three independent occasions.
The micrograph images were obtained with Leica SP8 confocal microscopy utilizing Leica application suite X software. Representative confocal images of three separate experiments are shown. The scale bar indicates 25 μm.

For test [7], the system named is MCF-7 cells. Further details: method as in PMID 33671674. The following applies: 1 μM, cited from earlier work.
Test [8] concerns MCF-7 breast cancer cells. Further details: method as in PMID 33671674. The following applies: cited from earlier work.
Test [9] relates to MDA-MB-231 breast cancer cells. Further details: method as in PMID 33671674. The conditions noted are these: cited from earlier work.
Test [10] relates to purified bovine brain tubulin. Further details: method as in PMID 33671674. The conditions noted are these: 10 μM; cited from earlier work.
Where [11] appears, read: MCF7, MCF-7, 1 μM, 72 h, read-out: viable cells.

Usually IC50 stands for the concentration needed to halve the response being measured. For the compound `COc1ccc(/C=C\c2cc(OC)c(OC)c(OC)c2)cc1O` [CA-4, combretastatin CA-4], the viability at 1 µM in test [1] (setting [11]) is 24%. The IC50 is 4 nM in test [2], 3.9 ± 0.32 nM in test [2] (reported values), 1.9 ± 0.5 nM in test [3] and 43 nM in test [4].

As for `COc1ccc(/C=C(\C)C(=O)c2cc(OC)c(OC)c(OC)c2)cc1O` [Compound 16a], the IC50 in test [5] is 0.21 nM.

In turn, `COc1ccc(/C=C/C(=O)c2cc(OC)c(OC)c(OC)c2)cc1O` [Compound 20b, (E)-3-(3-hydroxy-4-methoxyphenyl)-1-(3,4,5-trimethoxyphenyl)prop-2-en-1-one, reference compound] yielded an IC50 in test [1] (MCF7, MCF-7, 72 h) of 67 ± 17 nM.

As to `COc1cc(/C=C/C(c2cc(OC)c(OC)c(OC)c2)n2cncn2)cc(OC)c1OC` (stereo not shown) [Compound 22c, (E)-1-(1,3-Bis(3,4,5-trimethoxyphenyl)allyl)-1H-1,2,4-triazole], the viability at 1 µM in test [1] (setting [11]) was 70%.

`COc1ccc(/C=C/C(c2cc(OC)c(OC)c(OC)c2)n2cncn2)cc1OC` (stereo not shown) [Compound 22d, (E)-1-(3-(3,4-Dimethoxyphenyl)-1-(3,4,5-trimethoxyphenyl)allyl)-1H-1,2,4-triazole]: the viability at 1 µM in test [1] (setting [11]) is 74%.

On to `COc1ccc(C2CC(=O)c3cc(OC)c(OC)c(OC)c32)cc1O` (stereo not shown) [Compound 24a, 3-(3-Hydroxy-4-methoxyphenyl)-4,5,6-trimethoxy-2,3-dihydro-1H-inden-1-one, reference compound], for which the viability at 0.1 µM in test [1] (MCF7, MCF-7, 0.1 μM, 72 h, read-out: viable cells) turned out to be 70%. For the same compound, the viability at 1 µM in test [1] (setting [11]) was found to be 35%.

For the compound `C(=C\C(c1ccncc1)n1ccnc1)/c1c2ccccc2cc2ccccc12` (stereo not shown) [Compound 33b, (E)-4-(3-(Anthracen-9-yl)-1-(1H-imidazol-1-yl)allyl)pyridine], the viability at 1 µM in test [1] (setting [11]) turned out to be 92%.

Turning to `CC(=O)O[C@H]1C(=O)[C@@]2(C)[C@H]([C@H](OC(=O)c3ccccc3)[C@]3(O)C[C@H](OC(=O)[C@H](O)[C@@H](NC(=O)c4ccccc4)c4ccccc4)C(C)=C1C3(C)C)[C@]1(OC(C)=O)CO[C@@H]1C[C@@H]2O` [paclitaxel], the “effect on microtubule network” value in test [6] was “hyperpolymerization of tubulin”.

Consider `COc1ccc(C(=O)c2cc(OC)c(OC)c(OC)c2)cc1O` [phenstatin], for which the viability at 1 µM in [1] (MCF7, 72 h, read-out: viable cells) amounted to 30%. For the same compound, in [6], the “effect on microtubule network” value is “depolymerization of tubulin”. Besides, the IC50 in test [2] is 34 nM. Further, the “cells in G2/M phase” value in [7] (24 h) is listed as 65%; in [7] (48 h), 57%; in test [7] (72 h), 51%. Also, the “cells in apoptosis (sub-G1)” value in test [7] (72 h) is listed as 18%. Moreover, the total apoptosis in [8] (0.1 μM) is listed as 36.1%; in test [8] (0.5 μM), 46%; in test [9] (0.1 μM), 16.6%; in [9] (0.5 μM), 17.9%. Also, the “reduction in the polymer mass vs vehicle” value in test [10] is 10 fold.
